# Laboratory results taken from PMC9653995, “New Positive TRPC6 Modulator Penetrates Blood–Brain Barrier, Eliminates Synaptic Deficiency and Restores Memory Deficit in 5xFAD Mice” (International Journal of Molecular Sciences, 2022).
# Tested on: Aβ42-treated hippocampal neurons
# Test: In vitro amyloid synaptotoxicity model: mushroom spine percentage in primary hippocampal neuronal cultures
# Assay type: cell-based, mouse
# Details: 24 h, mean ± SEM
# Protocol: The average percentages of mushroom spines (MS%) in each experimental condition are presented as mean ± SEM (n = 20–30 neurons for each group from three batches of cultures). We observed that 24-h incubation in the presence of 1 µM and 100 nM of C20 rescues mushroom spine loss in Aβ42-treated hippocampal neurons. C20 lost its activity at a 10 nM concentration (Figure 2B, mushroom spine percentage (MS%) in the Control, 29.07 ± 1.15%; Control + C20 [1 µM], 31.32 ± 1.46%; Control + C20 [100 nM], 30.11 ± 0.86%; Control + C20 [10 nM]; […]; Aβ42, 19.82 ± 1.13%; Aβ42 + C20 [1 µM], 29.00 ± 1.94%; Aβ42 + C20 [100 nM], 27.28 ± 1.81%; Aβ42 + C20 [10 nM], 18.64 ± 1.63%; two-way ANOVA following Tukey’s multiple comparisons test, P values are indicated in the Figure).
# Primary hippocampal neuronal cultures were prepared as previously described. Briefly, hippocampuses from postnatal day 0–2 FVB/NJ mice were removed and cut into small pieces in ice-cold buffer (1% 10x CMF-HBSS (Gibco, Grand Island, NY, USA; #14185), 1% Pen Strep (Gibco, #15140), 16 MM HEPES (Sigma, St Louis, MO, USA; #H3375), 10 MM NaHCO3 (Sigma, #S5761); pH = 7.2). Cell tissue was dissociated by trituration with 5 mg/mL DNase I solution (Sigma, #DN-25) after papain (Worthington, Columbus, OH, USA; #LK003176) digestion for 30 min at 37 °C. Hippocampal neurons were plated onto poly-D-lysine (Sigma, #P0899) coated 12 mm glass coverslips (Thermo Scientific, Braunschweig, Germany; #CB00120RA1) in 24-well dishes. in Neurobasal/B-27 with the addition of insulin-transferrin-sodium selenite (Sigma-Aldrich). Cells were grown in 1 mL of Neurobasal medium (Gibco, #10888) supplemented with 1% FBS (Gibco, #10500), 2% 50xB27 (Gibco, #17504), 0.05 MM L- Glutamine (Gibco, #250030). The cultures were maintained at 37 °C in a 5% CO2 incubator. Half of the medium was replaced with a new culture medium at DIV 7 and DIV 14. At DIV 14, neurons were fixed for 10 min with 4% paraformaldehyde sucrose in PBS at room temperature.
# Neurons were transfected using the calcium phosphate method at DIV 7 as previously described with alterations that were described earlier. The transfection kit was obtained from Clontech (TAKARA Biotechnology, Mountain View, CA, USA; #631312).
# Aβ42 peptides were purchased from AnaSpec (Anaspec, Freemont, CA, USA; #AS-20276). Stock solution [1 mg/mL] was prepared as described earlier and stored at −20 °C. Working Aβ42 solution was made immediately prior to treatment of the cells by diluting the stock concentration to 6.6 µM final Aβ peptide concentrations in Neurobasal. The working solution was incubated at +4 °C for 24 h to obtain the oligomeric conditions as described. […]
smiles,measurement,setting,value
"COc1cc2c(cc1OC)C(c1cc3ccccc3oc1=O)=NC(C)(C)C2 [C20, 3-(3-,4-Dihydro-6,7-dimethoxy-3,3-dimethyl-1-isoquinolinyl)-2H-1-benzopyran-2-one]",mushroom spine percentage (MS%),"Aβ42-treated cultures + 10 nM, Aβ42 alone 19.82 ± 1.13%",18.64 ± 1.63%
same,mushroom spine percentage (MS%),"Aβ42-treated cultures + 100 nM, Aβ42 alone 19.82 ± 1.13%",27.28 ± 1.81%
same,mushroom spine percentage (MS%),"Aβ42-treated cultures + 1 µM, Aβ42 alone 19.82 ± 1.13%",29.00 ± 1.94%
same,mushroom spine percentage (MS%),"Control cultures + 100 nM, Control 29.07 ± 1.15%",30.11 ± 0.86%
